This note sets out measurements from US20260070885A1, “TRKA (G667C) AND FLT3 TARGET INHIBITOR AND COMBINATION OF SAME WITH CHIDAMIDE” (SHENZHEN CHIPSCREEN BIOSCIENCES CO., LTD., priority 2022, published 2026).

The target of assay [1] is TRKA (G667C) (Homo sapiens (Human), UniProt P04629, G667C). As to the kind of experiment: HTRF kinase inhibition assay, TRKA (G667C). The class given is biochemical. Conditions: ATP 0.5 μM. As to the method: (§1) The inhibition of the kinases TRKA (G667C), FLT3, and FLT3 (D835Y) by the compound N-[4-(6-fluoro-1H-2-benzimidazolyl)benzyl]-(E)-3-(pyridin-3-yl)acrylamide of the present disclosure (hereinafter referred to as compound A) was assessed using a homogeneous time-resolved fluorescence (HTRF) method based on biochemical levels.
Sequence of TRKA (G667C) (P04629 33-796 G667C): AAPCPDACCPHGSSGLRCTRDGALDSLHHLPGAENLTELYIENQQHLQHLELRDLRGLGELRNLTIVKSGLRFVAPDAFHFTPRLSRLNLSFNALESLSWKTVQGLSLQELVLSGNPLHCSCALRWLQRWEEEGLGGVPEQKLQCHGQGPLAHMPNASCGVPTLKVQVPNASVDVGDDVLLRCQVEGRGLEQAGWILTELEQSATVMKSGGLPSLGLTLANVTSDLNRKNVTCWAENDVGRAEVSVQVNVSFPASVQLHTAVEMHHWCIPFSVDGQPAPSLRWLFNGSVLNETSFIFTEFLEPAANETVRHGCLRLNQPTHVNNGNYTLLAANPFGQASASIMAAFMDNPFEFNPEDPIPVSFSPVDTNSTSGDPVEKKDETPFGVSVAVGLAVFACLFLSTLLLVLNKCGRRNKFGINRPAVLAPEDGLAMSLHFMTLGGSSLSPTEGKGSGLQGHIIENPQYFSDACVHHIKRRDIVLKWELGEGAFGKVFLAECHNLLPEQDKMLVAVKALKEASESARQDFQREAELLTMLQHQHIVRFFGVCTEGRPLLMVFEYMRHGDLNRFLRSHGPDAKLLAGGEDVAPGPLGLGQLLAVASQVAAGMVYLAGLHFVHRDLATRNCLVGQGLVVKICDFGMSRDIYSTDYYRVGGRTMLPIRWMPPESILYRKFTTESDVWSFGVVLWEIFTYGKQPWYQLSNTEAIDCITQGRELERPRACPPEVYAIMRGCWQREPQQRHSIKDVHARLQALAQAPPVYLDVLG
(§2) HTRF is a technology used for detecting a test substance in a pure liquid phase system. Based on two major technologies: fluorescence resonance energy transfer (FRET) and time-resolved fluorescence (TRF), the generated fluorescence intensity was measured using a microplate reader, and the ratio 665 nm/620 nm reflected the extent to which compound A inhibited the activity of the kinases TRKA (G667C), FLT3, and FLT3 (D835Y).
(§3) a) Preparation of compound A or chidamide: The starting stock solution concentration of compound A or chidamide was 20 mM. The stock solution was serially diluted with the solvent 100% DMSO to 0.2 mM, which was 200 times the assay starting concentration.
(§4) b) A kinase reaction buffer Assay Buffer was prepared using the following formula: […]
(§5) 4) After the 384-well plate was centrifuged at 1000 rpm for 30 s and shaken for thorough mixing, the fluorescence intensities at 665 nm and 620 nm were measured using EnVision, and the TR-FRET ratio (665 nm/620 nm) was calculated. […]

The target in assay [2] is FLT3 (Homo sapiens (Human), UniProt P36888). The assay can be described thus: HTRF kinase inhibition assay, FLT3. In kind it is biochemical. Conditions: ATP 2 μM. The procedure: as §1, §2, §3, §4, §5
A general note: Time-resolved FRET reads energy transfer from a long-lived donor to a nearby acceptor.

For assay [3], the target named is FLT3 (D835Y) (Homo sapiens (Human), UniProt P36888, D835Y). As to the kind of experiment: HTRF kinase inhibition assay, FLT3 (D835Y). In kind it is biochemical. Conditions: ATP 0.5 μM. As to the method: as §1, §2, §3, §4, §5
The test system of assay [4] is SHP77 cells. The assay can be described thus: Viability of SHP77 cells (MTS assay). Conditions: 72 h. The class given is cell-based. The procedure:
The SHP77 cell line was purchased from the American Type Culture Collection (ATCC) and cultured in an RPMI-1640 culture medium (Hyclone) containing 1% dual antibiotics (penicillin-streptomycin, Hyclone) and 10% fetal bovine serum (Gibco).
Compound A (N-[4-(6-Fluoro-1H-2-benzimidazolyl)benzyl]-(E)-3-(pyridin-3-yl)acrylamide) and chidamide were both from Shenzhen Chipscreen Biosciences Co., Ltd. The compound and chidamide were dissolved in dimethyl sulfoxide (DMSO, Shanghai Sangon, DN3039A) to prepare 20 mM working mother liquors, and the mother liquors were stored in a freezer at −20° C. before use. When in use, the mother liquors were diluted to prepare working solutions with corresponding final concentrations according to the needs of each experiment.
MTS solution: 42 mg of MTS Reagent Powder was placed in a light shielding container, and 21 mL of PBS was added. The mixture was gently stirred on a magnetic stirrer for 15 min until MTS was completely dissolved. The pH of the solution was measured. If the pH was higher than 6.5, the pH of the solution was adjusted to 6.5 with 1 M HCl. The solution was sterilized by filtration through a 0.2 μm filter and stored at −20° C. in a dark place.
PMS solution: […] of PMS was added to 21.7 mL of PBS to prepare a 150 μM stock solution, and the stock solution was sterilized by filtration, aliquoted, and stored at −20° C. in a dark place.
2.2. […]
2.4. […] After the plate was incubated for about 1 h, the absorbance at 490 nm in each well was measured using a microplate reader.
The reading of the BLANK well was OD490-BLANK (background value). The background value was subtracted from the readings of the wells to obtain the absorbance values of the administration wells, OD490-T, and the absorbance values of the control wells in which the drug concentration was 0, OD490-T0. With the cell viability of the control wells defined as 100%, the relative cell survival rate in each administration well was calculated using the formula: relative cell survival rate (%)=(OD490-T/OD490-T0)×100%.
On the technique in general: Tetrazolium assays rely on reduction of a dye to a coloured formazan, in cell work by metabolically active cells.

Molecules are shown by their SMILES.

The IC50 is the concentration that inhibits the measured activity by half. High values mean weaker potency, low ones greater potency. Consider `O=C(/C=C/c1cccnc1)NCc1ccc(-c2nc3ccc(F)cc3[nH]2)cc1` [Compound A, N-[4-(6-fluoro-1H-2-benzimidazolyl)benzyl]-(E)-3-(pyridin-3-yl)acrylamide], for which the half-inhibitory concentration (IC50) in assay [1] turned out to be 40.7 nM; in assay [2], 143 nM; in assay [3] it was 104 nM. In addition, the results for the “relative cell survival rate” value in assay [4] (compound A alone 0.625 μM) and in assay [4] (compound A alone 1.25 μM) were 77.43±1.18% and 44.09±6.59%, respectively.
As for `Nc1cc(F)ccc1NC(=O)c1ccc(CNC(=O)/C=C/c2cccnc2)cc1` [Chidamide, N-(2-amino-4-fluorophenyl)-4-[N-[(E)-3-(pyridin-3-yl)acryloyl]aminomethyl]benzamide], the IC50 in assay [1], in assay [2] and in assay [3] was over 1000 nM in each case. The “relative cell survival rate” value in assay [4] (chidamide alone 0.5 μM) amounted to 95.45±0.81%.
